According to PubChem BioAssay (NCI):
Where “and” joins values, the source holds several entries; their conditions need not be identical. Identical values can stand only once.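 Dose response: 5 concentrations. Exposure: 48 h. Format: 96-well plates. Endpoint: linear interpolation; highest concentration if not reached. The concentration for 50% growth inhibition is given as GI50. The concentration for full growth arrest is given as TGI.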

Legend:
Experiment in all cases: growth of human tumour cells (NCI), 48 h
OVCAR-3 ovarian = tested on: OVCAR-3 ovarian
NCI-H226 lung = tested on: NCI-H226 lung
K-562 leukemia = tested on: K-562 leukemia
BT-549 breast = tested on: BT-549 breast
HCC-2998 colon = tested on: HCC-2998 colon
786-0 renal = tested on: 786-0 renal
MCF7 breast = tested on: MCF7 breast
HOP-92 NSCLC = tested on: HOP-92 NSCLC
CCRF-CEM leukemia = tested on: CCRF-CEM leukemia
MDA-MB-231 breast = tested on: MDA-MB-231 breast

Row | SMILES | GI50 (OVCAR-3 ovarian) [nM] | TGI (OVCAR-3 ovarian) [nM] | GI50 (NCI-H226 lung) | TGI (NCI-H226 lung) [nM] | GI50 (K-562 leukemia) | TGI (K-562 leukemia) [nM] | GI50 (BT-549 breast) | TGI (BT-549 breast) | GI50 (HCC-2998 colon) | TGI (HCC-2998 colon) | GI50 (786-0 renal) | TGI (786-0 renal) [nM] | GI50 (MCF7 breast) | GI50 (HOP-92 NSCLC) | TGI (HOP-92 NSCLC) | GI50 (CCRF-CEM leukemia) | TGI (CCRF-CEM leukemia) [nM] | GI50 (MDA-MB-231 breast) | TGI (MDA-MB-231 breast) [nM] | TGI (MCF7 breast) [nM]
1 | O=c1cnnc(N/N=C/c2ccccc2O)[nH]1 | 324 | > 100000 | 1630 nM | 51700 | 163 nM | > 100000 | 6360 nM | > 100000 nM | 3020 nM | > 100000 nM | 5100 nM | > 100000 | 39.6 nM | 4750 nM | > 100000 nM | 396 nM | > 39900 | 4370 nM | > 100000 | –
2 | C#CC(=O)Nc1cccc2c1cc(C)n2-c1nc2c(c(NCc3ccccc3)n1)CCCC2 | – | – | 250 nM | 644 | 368 nM | 3450 | 137 nM | 324 nM | 335 nM | 1000 nM | 18.9 nM | 35.9 | 226 nM | 142 nM | 315 nM | 25.5 nM | 60.5 | 57.8 nM | 261 | 1230
3 | CCCCCCn1c(SC)nc(COC(=O)NC)c1COC(=O)NC | – | 33500 | – | 33300 | – | > 100000 | – | 34000 nM | – | – | – | 30300 | – | – | – | – | – | – | 32800 | 38000
4 | CC1=C(C)C(=O)O[C@@H]([C@](C)(O)[C@]2(O)CC[C@@]3(O)[C@@H]4C[C@H](O)[C@]5(O)[C@@H](O)C=CC(=O)[C@]5(C)[C@H]4CC[C@]23C)C1 | – | > 100000 | – | > 100000 | – | > 100000 | – | > 100000 nM | – | > 100000 nM | – | > 100000 | – | – | > 100000 nM | – | 89500 | – | > 100000 | > 100000
5 | COc1ccc(NC2=C(I)C(=O)c3ncccc3C2=O)cc1 | 270 | 1130 | 1420 nM | 2830 | 533 nM | 5190 | 1270 nM | 2590 nM | 1450 nM | 3010 nM | 1850 nM | 4740 | – | 1480 nM | 3780 nM | 2040 nM | 6550 | 2080 nM | 7640 | –
6 | Oc1c(Cl)cc(Cl)cc1/C=N/Nc1nnc(N/N=C/c2cc(Cl)cc(Cl)c2O)c2ccccc12 | 334 | 18200 | 402 nM | 3040 | 372 nM | > 100000 | 549 nM | > 100000 nM | 469 nM | > 100000 nM | 418 nM | > 100000 | 482 nM | 284 nM | – | 275 nM | – | 479 nM | > 100000 | > 100000
7 | CCc1cnn2c(NCc3ccc[n+]([O-])c3)cc(N3CCCC[C@H]3CCO)nc12 | 3.27 | > 10000 | < 12.9 nM and 6.89 nM | 39.5 | 15.5 nM and 4.49 nM | > 100000 | < 10 nM and 3.31 nM | < 18.3 nM and 30.5 nM | < 10 nM and 4.5 nM | 49.2 nM and 34.7 nM | 10.1 nM and 4.94 nM | > 100000 | < 10 nM and 2.21 nM | < 14.2 nM and 2.99 nM | < 26.9 nM and 14.5 nM | < 10 nM and 3.31 nM | – | < 10 nM and 4.2 nM | > 100000 | > 100000
